Molecules are shown by their SMILES. Activity calls are given as the source filed them. The calls are words filed in the database; no cut-off is given here.

The values that follow come from ChEMBL document CHEMBL1147689, “Development of withaferin A analogs as probes of angiogenesis” (Bioorg Med Chem Lett, 2006).

Holding throughout (assay type): functional, cell-based
Common to all, as to conditions: Homo sapiens

Assay [1] concerns HUVEC. Nature of the assay: Ability to block bFGF-induced vessel growth in the type 1 collagen matrix at 5 uM.
Assay [2] deals with HUVEC. Nature of the assay: Ability to block bFGF-induced vessel growth in the type 1 collagen matrix at 500 nM.
For assay [3], the system named is HUVEC. As to the kind of experiment: Increase of ubiquitinated protein level in TNF-alpha-treated HUVEC at 5 uM.
Assay [4] has as its system HUVEC. Nature of the assay: Ability to block bFGF-induced vessel growth in the type 1 collagen matrix at 1 uM.

For the compound `CC1=C(CO)C(=O)OC([C@@H](C)C2CCC3C4C(CC[C@@]32C)[C@@]2(C)C(=O)C=CC[C@]2(O)[C@H]2O[C@@H]42)C1` (stereo not given in full), the result in the assay on HUVEC [1] was inactive.

On to `CC1=C(COC(=O)CNC(=O)CCCCCNC(=O)CCCCCNC(=O)CCCC[C@@H]2SCC3NC(=O)NC32)C(=O)OC([C@@H](C)C2CCC3C4C[C@H]5O[C@]56[C@@H](O)C=CC(=O)[C@]6(C)C4CC[C@@]32C)C1` (stereo not given in full), for which the outcome in the assay with HUVEC [2] was inactive. Further, the outcome in the assay on HUVEC [3] and with HUVEC [1] was Active.

For the compound `CC1=C(CO)C(=O)O[C@@H]([C@@H](C)[C@H]2CC[C@H]3[C@@H]4C[C@H]5O[C@]56[C@@H](O)C=CC(=O)[C@]6(C)[C@H]4CC[C@]23C)C1`, the outcome in the assay with HUVEC [4] was Active.
